# Literature values, collected in patent US7771744B2, “Bazedoxifene acetate formulations” (Wyeth LLC, priority 2005, dated 2010).
# What was measured:
# [1] = test system: MCF-7 cell line (human breast cancer cell line)
# uterine response = conditions: preclinical models of uterine stimulation
# [2] = test system: bone loss and cholesterol; conditions: ovariectomized rat model of osteopenia
SMILES,estrogen antagonist behaviour [1],stimulation of uterine response (uterine response),effect on bone loss and cholesterol [2],solubility in aqueous and organic solvent systems compared with form B
"Cc1c(-c2ccc(O)cc2)n(Cc2ccc(OCCN3CCCCCC3)cc2)c2ccc(O)cc12 [bazedoxifene acetate, 1-[4-(2-azepan-1-yl-ethoxy)-benzyl]-2-(4-hydroxy-phenyl)-3-methyl-1H-indol-5-ol acetic acid]",behaves as an estrogen antagonist,little or no stimulation of uterine response,estrogen agonist-like effect in preventing bone loss and reducing cholesterol,–
"Cc1c(-c2ccc(O)cc2)n(Cc2ccc(OCCN3CCCCCC3)cc2)c2ccc(O)cc12 [Form A, 1-[4-(2-azepan-1-yl-ethoxy)-benzyl]-2-(4-hydroxy-phenyl)-3-methyl-1H-indol-5-ol acetic acid]",–,–,–,higher solubility
